Assay results as given in publication PMC6131205, “Controlling the regioselectivity and stereospecificity of FAD-dependent polyamine oxidases with the use of amine-attached guide molecules as conformational modulators” (Bioscience Reports, 2018).

Experiments:
Fms1 = Fms1 (Saccharomyces cerevisiae, UniProt P50264); assay: Substrate kinetics with recombinant Fms1 (HPLC of reaction products);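 further: recombinant polyamine oxidases incubated with substrate, product amines (putrescine, 1,3-diaminopropane or butane-1,3-diamine) quantified by HPLC after post-column o-phthalaldehyde derivatization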
Chain of Fms1 (P50264 whole entry): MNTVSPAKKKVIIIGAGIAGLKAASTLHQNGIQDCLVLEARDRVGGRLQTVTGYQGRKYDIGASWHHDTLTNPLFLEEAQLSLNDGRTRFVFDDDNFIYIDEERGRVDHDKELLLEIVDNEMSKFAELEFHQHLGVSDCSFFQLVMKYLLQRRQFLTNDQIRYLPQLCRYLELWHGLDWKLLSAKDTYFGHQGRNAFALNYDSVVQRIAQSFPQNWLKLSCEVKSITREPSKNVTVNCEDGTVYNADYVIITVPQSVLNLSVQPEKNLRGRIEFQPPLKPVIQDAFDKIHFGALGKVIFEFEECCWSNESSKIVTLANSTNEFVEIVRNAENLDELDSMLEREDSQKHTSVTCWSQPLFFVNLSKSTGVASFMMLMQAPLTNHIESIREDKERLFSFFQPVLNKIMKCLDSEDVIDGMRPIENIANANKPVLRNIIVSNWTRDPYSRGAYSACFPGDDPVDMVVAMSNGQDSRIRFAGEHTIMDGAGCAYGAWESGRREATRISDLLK
Method: HPLC with post-column o-phthalaldehyde-derivatization was used to determine the concentrations of the reaction products Put and 1,3-diaminopropane (DAP) or butane-1,3-diamine respectively as described in [30]. Fms1 activity was determined essentially as described for human recombinant APAO, but reactions were carried out in 100 mM Glycine-NaOH buffer at pH 9.0 in a water bath at +25°C [29, 30].
The reactions were carried out in 1 triplicate at pH 9.0 in 100 mM Glycine-NaOH at +25°C.
values for N -Ac-MeSpd enantiomers were determined by using substrate concentrations of 25, 50,
for Rac-MeSpd 30 min, (R)-MeSpd 20 min and (S)-MeSpd 40 minutes.
The reactions were carried out in triplicate at pH 9.0 in 100 mM Glycine-NaOH at +25°C.
values for MeSpd enantiomers were determined by using substrate concentrations of 100, 300, 600,
1000, 2000 and 4000 M. Recombinant Fms1 was 3.8 g/reaction and the incubation time 60
incubated for 30 min (half of the reaction time of an ordinary sample). E1 cleavage was monitored
by HPLC by measuring Put formation and E2 cleavage by determining butane-1,3-diamine content.

SMOX = SMOX (Homo sapiens, UniProt Q9NWM0); design: made in house; method as in PMID 17901051, PMID 16354669; settings: cited from earlier work
Chain of SMOX (Q9NWM0 whole entry): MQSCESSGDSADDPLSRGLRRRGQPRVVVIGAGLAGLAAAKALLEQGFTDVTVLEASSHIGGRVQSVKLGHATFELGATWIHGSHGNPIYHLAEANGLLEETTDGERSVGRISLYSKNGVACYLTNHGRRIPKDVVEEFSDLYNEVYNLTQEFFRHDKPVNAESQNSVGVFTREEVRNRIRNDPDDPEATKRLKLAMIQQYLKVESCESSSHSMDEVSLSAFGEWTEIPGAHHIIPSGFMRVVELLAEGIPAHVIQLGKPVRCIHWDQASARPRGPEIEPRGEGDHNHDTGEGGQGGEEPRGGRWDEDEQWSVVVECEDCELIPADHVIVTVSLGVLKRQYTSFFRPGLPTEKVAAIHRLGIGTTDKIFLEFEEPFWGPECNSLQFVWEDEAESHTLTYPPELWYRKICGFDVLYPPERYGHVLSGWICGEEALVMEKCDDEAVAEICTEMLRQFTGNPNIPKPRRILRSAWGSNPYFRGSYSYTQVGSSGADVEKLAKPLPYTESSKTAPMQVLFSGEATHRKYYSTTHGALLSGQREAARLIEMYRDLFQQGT

human recombinant APAO = molecular target: T1, human recombinant APAO (Homo sapiens, UniProt Q6QHF9); settings: cited from earlier work
T1 construct: made in house
T1 sequence (Q6QHF9 whole entry): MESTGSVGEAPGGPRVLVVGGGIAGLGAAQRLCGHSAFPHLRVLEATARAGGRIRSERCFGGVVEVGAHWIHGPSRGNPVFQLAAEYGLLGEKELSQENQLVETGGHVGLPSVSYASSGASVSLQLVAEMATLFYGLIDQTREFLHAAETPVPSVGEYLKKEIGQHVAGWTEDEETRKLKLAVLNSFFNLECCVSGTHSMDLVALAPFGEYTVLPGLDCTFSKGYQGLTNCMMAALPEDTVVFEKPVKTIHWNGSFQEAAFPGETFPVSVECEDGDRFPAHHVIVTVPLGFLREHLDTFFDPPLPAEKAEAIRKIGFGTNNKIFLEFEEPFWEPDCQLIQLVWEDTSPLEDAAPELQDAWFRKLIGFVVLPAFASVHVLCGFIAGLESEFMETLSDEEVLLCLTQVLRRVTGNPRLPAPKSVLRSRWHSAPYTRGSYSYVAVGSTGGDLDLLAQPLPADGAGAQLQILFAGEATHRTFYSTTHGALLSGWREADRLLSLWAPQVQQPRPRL

[1] = tested on: amine oxidases in rat liver homogenates; assay: Degradation in rat liver supernatant; type: in vitro ADME; settings: 20 μM MDL 72527, 5 min preincubation
Method: A Wistar rat liver was frozen in liquid nitrogen. The liver was homogenized (1+3 w/v) with Teflon potter in buffer containing 25 mM Tris/HCl pH 7.4, 1 mM DTT and 0.1 mM EDTA. Resulting homogenate was centrifuged at 12000×g for 30 min at +4°C. Supernatant was divided into two portions and treated as follows: (A) incubated for 5 min at +37°C in a water bath, (B) supplemented with 20 μM MDL 72527 and incubated for 5 min at +37°C in a water bath to inactivate APAO and SMOX. A 20-μl aliquot of supernatant A or B was added in 100 mM Glycine-NaOH pH 9.5, 5 mM DTT with or without 100 μM of studied drug in a total volume of 180 μl. After 10-min incubation at +37°C, 20 μl of 50% sulphosalicylic acid (SSA) containing 100 μM diaminoheptane (DAH) was added to the reaction mixture. The samples were assayed with HPLC as described in [30].

CC(N)CCNCCCCNCCC(C)N [(S,S)-Me2Spm, 2,13-diamino-5,10-diazatetradecane]
Specificity constant ratio SS/RR (Fms1; Fms1, (S,S)-Me2Spm vs (R,R)-Me2Spm): 3.9 | Specificity constant ratio SS/Spm (Fms1; Fms1, (S,S)-Me2Spm vs Spm): 0.07 | Specificity constant ratio SS/RR (SMOX; (S,S)-Me2Spm vs (R,R)-Me2Spm): 454 | Specificity constant ratio SS/Spm (SMOX; (S,S)-Me2Spm vs Spm): 2.1 | Specificity constant ratio SS/RR (human recombinant APAO; (S,S)-Me2Spm vs (R,R)-Me2Spm): 28 | Specificity constant ratio SS/Spm (human recombinant APAO; (S,S)-Me2Spm vs Spm): 7.1

C=C=CCNCCCCNCC=C=C [MDL72527]
inhibition of analogue degradation in rat liver supernatant [1]: Complete inhibition
